# Reference: ChEMBL document CHEMBL4270577, “Synthesis, anticancer activity and molecular modeling studies of 1,2,4-triazole derivatives as EGFR inhibitors” (Eur J Med Chem, 2018)
# Tested on: CCRF-CEM
# Assay: Growth inhibition of human CCRF-CEM cells at 10 uM incubated for 48 hrs by sulforhodamine B assay relative to control
# Type: functional
# Conditions: read-out: GI
row,SMILES,inhibition of growth at 10 µM [%]
1,C/C(=N/O)c1ccc(NC(=O)Cn2nc(C(F)(F)F)nc2N)cc1,10.5
2,CC(=O)c1ccc(NC(=O)Cn2nc(C(F)(F)F)nc2N)cc1,6.78

# Tested on: HL-60(TB)
# Assay: Growth inhibition of human HL-60(TB) cells at 10 uM incubated for 48 hrs by sulforhodamine B assay relative to control
# Type: functional
# Conditions: HL-60, 48 h, read-out: GI
row,SMILES,inhibition of growth at 10 µM [%]
1,C/C(=N/O)c1ccc(NC(=O)Cn2nc(C(F)(F)F)nc2N)cc1,26
2,CC(=O)c1ccc(NC(=O)Cn2nc(C(F)(F)F)nc2N)cc1,15.4

# Tested on: MOLT-4
# Assay: Growth inhibition of human MOLT4 cells at 10 uM incubated for 48 hrs by sulforhodamine B assay relative to control
# Type: functional
# Conditions: MOLT-4, 48 h, read-out: GI
row,SMILES,inhibition of growth at 10 µM [%]
1,C/C(=N/O)c1ccc(NC(=O)Cn2nc(C(F)(F)F)nc2N)cc1,23.3
2,CC(=O)c1ccc(NC(=O)Cn2nc(C(F)(F)F)nc2N)cc1,7.46

# Tested on: RPMI-8226
# Assay: Growth inhibition of human RPMI8226 cells at 10 uM incubated for 48 hrs by sulforhodamine B assay relative to control
# Type: functional
# Conditions: RPMI-8226, 48 h, read-out: GI
row,SMILES,inhibition of growth at 10 µM [%]
1,C/C(=N/O)c1ccc(NC(=O)Cn2nc(C(F)(F)F)nc2N)cc1,4.65

# Tested on: SR
# Assay: Growth inhibition of human SR cells at 10 uM incubated for 48 hrs by sulforhodamine B assay relative to control
# Type: functional
# Conditions: read-out: GI
row,SMILES,inhibition of growth at 10 µM [%]
1,C/C(=N/O)c1ccc(NC(=O)Cn2nc(C(F)(F)F)nc2N)cc1,15.9

# Tested on: A549
# Assay: Growth inhibition of human A549/ATCC cells at 10 uM incubated for 48 hrs by sulforhodamine B assay relative to control
# Type: functional
# Conditions: A549, 48 h, read-out: GI
row,SMILES,inhibition of growth at 10 µM [%]
1,C/C(=N/O)c1ccc(NC(=O)Cn2nc(C(F)(F)F)nc2N)cc1,29
2,CC(=O)c1ccc(NC(=O)Cn2nc(C(F)(F)F)nc2N)cc1,20

# Tested on: HOP-62
# Assay: Growth inhibition of human HOP62 cells at 10 uM incubated for 48 hrs by sulforhodamine B assay relative to control
# Type: functional
# Conditions: HOP-62, 48 h, read-out: GI
row,SMILES,inhibition of growth at 10 µM [%]
1,C/C(=N/O)c1ccc(NC(=O)Cn2nc(C(F)(F)F)nc2N)cc1,9.21
2,CC(=O)c1ccc(NC(=O)Cn2nc(C(F)(F)F)nc2N)cc1,9.94

# Tested on: NCI-H226
# Assay: Growth inhibition of human NCI-H226 cells at 10 uM incubated for 48 hrs by sulforhodamine B assay relative to control
# Type: functional
# Conditions: NCI-H226, 48 h, read-out: GI
row,SMILES,inhibition of growth at 10 µM [%]
1,C/C(=N/O)c1ccc(NC(=O)Cn2nc(C(F)(F)F)nc2N)cc1,12.9
2,CC(=O)c1ccc(NC(=O)Cn2nc(C(F)(F)F)nc2N)cc1,8.52

# Tested on: NCI-H23
# Assay: Growth inhibition of human NCI-H23 cells at 10 uM incubated for 48 hrs by sulforhodamine B assay relative to control
# Type: functional
# Conditions: NCI-H23, 48 h, read-out: GI
row,SMILES,inhibition of growth at 10 µM [%]
1,C/C(=N/O)c1ccc(NC(=O)Cn2nc(C(F)(F)F)nc2N)cc1,4.46

# Tested on: NCI-H322M
# Assay: Growth inhibition of human NCI-H322M cells at 10 uM incubated for 48 hrs by sulforhodamine B assay relative to control
# Type: functional
# Conditions: read-out: GI
row,SMILES,inhibition of growth at 10 µM [%]
1,C/C(=N/O)c1ccc(NC(=O)Cn2nc(C(F)(F)F)nc2N)cc1,4.32

# Tested on: NCI-H522
# Assay: Growth inhibition of human NCI-H522 cells at 10 uM incubated for 48 hrs by sulforhodamine B assay relative to control
# Type: functional
# Conditions: NCI-H522, 48 h, read-out: GI
row,SMILES,inhibition of growth at 10 µM [%]
1,C/C(=N/O)c1ccc(NC(=O)Cn2nc(C(F)(F)F)nc2N)cc1,31
2,CC(=O)c1ccc(NC(=O)Cn2nc(C(F)(F)F)nc2N)cc1,21

# Tested on: HCT-116
# Assay: Growth inhibition of human HCT116 cells at 10 uM incubated for 48 hrs by sulforhodamine B assay relative to control
# Type: functional
# Conditions: HCT-116, 48 h, read-out: GI
row,SMILES,inhibition of growth at 10 µM [%]
1,C/C(=N/O)c1ccc(NC(=O)Cn2nc(C(F)(F)F)nc2N)cc1,8.65

# Tested on: HT-29
# Assay: Growth inhibition of human HT-29 cells at 10 uM incubated for 48 hrs by sulforhodamine B assay relative to control
# Type: functional
# Conditions: HT-29, 48 h, read-out: GI
row,SMILES,inhibition of growth at 10 µM [%]
1,C/C(=N/O)c1ccc(NC(=O)Cn2nc(C(F)(F)F)nc2N)cc1,11.9
2,CC(=O)c1ccc(NC(=O)Cn2nc(C(F)(F)F)nc2N)cc1,16

# Tested on: SNB-19
# Assay: Growth inhibition of human SNB19 cells at 10 uM incubated for 48 hrs by sulforhodamine B assay relative to control
# Type: functional
# Conditions: SNB-19, 48 h, read-out: GI
row,SMILES,inhibition of growth at 10 µM [%]
1,CC(=O)c1ccc(NC(=O)Cn2nc(C(F)(F)F)nc2N)cc1,4.37

# Tested on: SNB-75
# Assay: Growth inhibition of human SNB75 cells at 10 uM incubated for 48 hrs by sulforhodamine B assay relative to control
# Type: functional
# Conditions: SNB-75, 48 h, read-out: GI
row,SMILES,inhibition of growth at 10 µM [%]
1,C/C(=N/O)c1ccc(NC(=O)Cn2nc(C(F)(F)F)nc2N)cc1,14.8
2,CC(=O)c1ccc(NC(=O)Cn2nc(C(F)(F)F)nc2N)cc1,12.5

# Tested on: U-251
# Assay: Growth inhibition of human U251 cells at 10 uM incubated for 48 hrs by sulforhodamine B assay relative to control
# Type: functional
# Conditions: U-251, 48 h, read-out: GI
row,SMILES,inhibition of growth at 10 µM [%]
1,C/C(=N/O)c1ccc(NC(=O)Cn2nc(C(F)(F)F)nc2N)cc1,11.3

# Tested on: SK-MEL-2
# Assay: Growth inhibition of human SK-MEL-2 cells at 10 uM incubated for 48 hrs by sulforhodamine B assay relative to control
# Type: functional
# Conditions: SK-MEL-2, 48 h, read-out: GI
row,SMILES,inhibition of growth at 10 µM [%]
1,C/C(=N/O)c1ccc(NC(=O)Cn2nc(C(F)(F)F)nc2N)cc1,13.1

# Tested on: UACC-257
# Assay: Growth inhibition of human UACC257 cells at 10 uM incubated for 48 hrs by sulforhodamine B assay relative to control
# Type: functional
# Conditions: UACC-257, 48 h, read-out: GI
row,SMILES,inhibition of growth at 10 µM [%]
1,C/C(=N/O)c1ccc(NC(=O)Cn2nc(C(F)(F)F)nc2N)cc1,25.6
2,CC(=O)c1ccc(NC(=O)Cn2nc(C(F)(F)F)nc2N)cc1,14.6

# Tested on: UACC-62
# Assay: Growth inhibition of human UACC62 cells at 10 uM incubated for 48 hrs by sulforhodamine B assay relative to control
# Type: functional
# Conditions: UACC-62, 48 h, read-out: GI
row,SMILES,inhibition of growth at 10 µM [%]
1,C/C(=N/O)c1ccc(NC(=O)Cn2nc(C(F)(F)F)nc2N)cc1,5.39

# Tested on: OVCAR-8
# Assay: Growth inhibition of human OVCAR8 cells at 10 uM incubated for 48 hrs by sulforhodamine B assay relative to control
# Type: functional
# Conditions: OVCAR-8, 48 h, read-out: GI
row,SMILES,inhibition of growth at 10 µM [%]
1,C/C(=N/O)c1ccc(NC(=O)Cn2nc(C(F)(F)F)nc2N)cc1,20.5
2,CC(=O)c1ccc(NC(=O)Cn2nc(C(F)(F)F)nc2N)cc1,13.3

# Tested on: SK-OV-3
# Assay: Growth inhibition of human SKOV3 cells at 10 uM incubated for 48 hrs by sulforhodamine B assay relative to control
# Type: functional
# Conditions: SK-OV-3, 48 h, read-out: GI
row,SMILES,inhibition of growth at 10 µM [%]
1,C/C(=N/O)c1ccc(NC(=O)Cn2nc(C(F)(F)F)nc2N)cc1,3.53
2,CC(=O)c1ccc(NC(=O)Cn2nc(C(F)(F)F)nc2N)cc1,7.02

# Tested on: TK-10
# Assay: Growth inhibition of human TK10 cells at 10 uM incubated for 48 hrs by sulforhodamine B assay relative to control
# Type: functional
# Conditions: TK-10, 48 h, read-out: GI
row,SMILES,inhibition of growth at 10 µM [%]
1,C/C(=N/O)c1ccc(NC(=O)Cn2nc(C(F)(F)F)nc2N)cc1,14.3
2,CC(=O)c1ccc(NC(=O)Cn2nc(C(F)(F)F)nc2N)cc1,5.17

# Tested on: UO-31
# Assay: Growth inhibition of human UO31 cells at 10 uM incubated for 48 hrs by sulforhodamine B assay relative to control
# Type: functional
# Conditions: UO-31, 48 h, read-out: GI
row,SMILES,inhibition of growth at 10 µM [%]
1,C/C(=N/O)c1ccc(NC(=O)Cn2nc(C(F)(F)F)nc2N)cc1,15.1
2,CC(=O)c1ccc(NC(=O)Cn2nc(C(F)(F)F)nc2N)cc1,13.7

# Tested on: PC-3
# Assay: Growth inhibition of human PC3 cells at 10 uM incubated for 48 hrs by sulforhodamine B assay relative to control
# Type: functional
# Conditions: PC-3, 48 h, read-out: GI
row,SMILES,inhibition of growth at 10 µM [%]
1,C/C(=N/O)c1ccc(NC(=O)Cn2nc(C(F)(F)F)nc2N)cc1,20.3
2,CC(=O)c1ccc(NC(=O)Cn2nc(C(F)(F)F)nc2N)cc1,10.6

# Tested on: Hs-578T
# Assay: Growth inhibition of human Hs 578T cells at 10 uM incubated for 48 hrs by sulforhodamine B assay relative to control
# Type: functional
# Conditions: read-out: GI
row,SMILES,inhibition of growth at 10 µM [%]
1,CC(=O)c1ccc(NC(=O)Cn2nc(C(F)(F)F)nc2N)cc1,7.42

# Tested on: T47D
# Assay: Growth inhibition of human T47D cells at 10 uM incubated for 48 hrs by sulforhodamine B assay relative to control
# Type: functional
# Conditions: read-out: GI
row,SMILES,inhibition of growth at 10 µM [%]
1,CC(=O)c1ccc(NC(=O)Cn2nc(C(F)(F)F)nc2N)cc1,10.8

# Tested on: PANC-1
# Assay: Antiproliferative activity against human PANC1 cells after 48 hrs by propidium iodide staining-based fluorometric analysis
# Type: functional, cell-based
# Conditions: PANC-1, 48 h
row,SMILES,IC50 [µM]
1,C/C(=N/O)c1ccc(NC(=O)Cn2nc(C(F)(F)F)nc2N)cc1,3.5
2,CC(=O)c1ccc(NC(=O)Cn2nc(C(F)(F)F)nc2N)cc1,4.5

# Tested on: MIA PaCa-2
# Assay: Antiproliferative activity against human MIAPaCa2 cells after 48 hrs by propidium iodide staining-based fluorometric analysis
# Type: functional, cell-based
# Conditions: MIA PaCa-2, 48 h
row,SMILES,IC50 [µM]
1,C/C(=N/O)c1ccc(NC(=O)Cn2nc(C(F)(F)F)nc2N)cc1,4.9
2,CC(=O)c1ccc(NC(=O)Cn2nc(C(F)(F)F)nc2N)cc1,4.7

# Tested on: HT-29
# Assay: Antiproliferative activity against human HT-29 cells after 48 hrs by propidium iodide staining-based fluorometric analysis
# Type: functional, cell-based
# Conditions: HT-29, 48 h
row,SMILES,IC50 [µM]
1,C/C(=N/O)c1ccc(NC(=O)Cn2nc(C(F)(F)F)nc2N)cc1,5.4
2,CC(=O)c1ccc(NC(=O)Cn2nc(C(F)(F)F)nc2N)cc1,3.8

# Tested on: NCI-H460
# Assay: Antiproliferative activity against human H460 cells after 48 hrs by propidium iodide staining-based fluorometric analysis
# Type: functional, cell-based
# Conditions: NCI-H460, 48 h
row,SMILES,IC50 [µM]
1,C/C(=N/O)c1ccc(NC(=O)Cn2nc(C(F)(F)F)nc2N)cc1,5.2
2,CC(=O)c1ccc(NC(=O)Cn2nc(C(F)(F)F)nc2N)cc1,3.7
